The values that follow are results of earlier work, collected in publication PMC8894159, “Paltusotine, a novel oral once-daily nonpeptide SST2 receptor agonist, suppresses GH and IGF-1 in healthy volunteers” (Pituitary, 2022).

On the set-up of data set [1]: method as in PMID 25260838. The following applies: patients taking pasireotide; cited from earlier work.
Data set [2] concerns IGF-1. Details: method as in PMID 25664604. The following applies: twice-daily oral preparation; patients previously controlled on depot preparations; cited from earlier work.

Turning to pasireotide, the patients with hyperglycemia/diabetes entry in data set [1] is given as “approximately 57%”. With octreotide, the “patients maintaining IGF-1 control” value in data set [2] was 58%.
